Counter-ions that a name gives are not always drawn.
target: hERG (Homo sapiens, UniProt Q12809); test: cell-based; conditions: (-LOG10(IC50), µM)
Sequence (Q12809 whole entry): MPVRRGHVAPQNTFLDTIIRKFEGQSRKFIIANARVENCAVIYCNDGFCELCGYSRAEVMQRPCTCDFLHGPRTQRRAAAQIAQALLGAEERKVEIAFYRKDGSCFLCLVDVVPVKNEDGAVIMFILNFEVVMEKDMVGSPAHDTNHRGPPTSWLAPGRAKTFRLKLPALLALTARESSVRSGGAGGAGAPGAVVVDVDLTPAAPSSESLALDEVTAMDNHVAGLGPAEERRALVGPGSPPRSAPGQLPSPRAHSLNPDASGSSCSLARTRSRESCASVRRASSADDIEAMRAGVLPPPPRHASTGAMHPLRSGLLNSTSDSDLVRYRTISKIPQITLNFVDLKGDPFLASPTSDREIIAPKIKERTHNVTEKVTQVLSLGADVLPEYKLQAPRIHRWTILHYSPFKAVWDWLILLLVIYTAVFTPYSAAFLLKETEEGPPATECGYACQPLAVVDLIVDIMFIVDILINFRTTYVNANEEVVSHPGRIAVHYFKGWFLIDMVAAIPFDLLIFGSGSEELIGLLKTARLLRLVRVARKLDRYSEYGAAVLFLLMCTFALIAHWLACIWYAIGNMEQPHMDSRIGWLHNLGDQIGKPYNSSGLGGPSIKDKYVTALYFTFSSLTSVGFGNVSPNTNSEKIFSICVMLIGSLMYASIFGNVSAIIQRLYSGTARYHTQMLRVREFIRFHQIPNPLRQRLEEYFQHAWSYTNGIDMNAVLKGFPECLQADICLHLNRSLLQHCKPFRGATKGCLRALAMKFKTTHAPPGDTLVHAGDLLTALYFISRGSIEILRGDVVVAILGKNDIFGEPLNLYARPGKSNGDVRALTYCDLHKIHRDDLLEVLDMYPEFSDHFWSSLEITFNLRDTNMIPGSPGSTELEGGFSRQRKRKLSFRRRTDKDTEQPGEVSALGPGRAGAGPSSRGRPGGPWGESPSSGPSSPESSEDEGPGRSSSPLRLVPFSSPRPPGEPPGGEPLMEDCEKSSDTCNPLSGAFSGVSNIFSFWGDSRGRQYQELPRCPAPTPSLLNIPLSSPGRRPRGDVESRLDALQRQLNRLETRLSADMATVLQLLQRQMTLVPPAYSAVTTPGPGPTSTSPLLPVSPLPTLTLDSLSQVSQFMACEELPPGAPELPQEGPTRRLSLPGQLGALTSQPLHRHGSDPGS

CCC(Cc1ccccc1)(C(=O)c1ccc(N2CCOCC2)cc1)N(C)C (stereo not drawn) [2-Benzyl-2-(dimethylamino)-1-[4-(morpholin-4-yl)phenyl]butan-1-one] and Nc1ccc(C(=O)N2CC3CC(CN(Cc4ccccc4)C3)C2)cc1 [Ambasilide] are within 1.5-fold of each other in IC50: 19.5 µM for the first, 21.3 µM for the second.

Brc1ccccc1-c1ccccc1 [2-Bromobiphenyl] and Cc1ccc(-c2ccccc2)cc1 [4-Phenyltoluene] are within 1.5-fold of each other in IC50: 35.5 µM for the first, 49 µM for the second.

First: CCc1ccc2c(c1)C(=O)c1ccccc1C2=O [2-Ethylanthraquinone]
Second: CCc1cccc(N(C)C(N)=Nc2cccc3ccccc23)c1 [Aptiganel hydrochloride]
The IC50 of the first is 2.4-fold higher: 24.5 µM for the first, 10.3 µM for the second.

CCCCC(CC)COC(=O)c1ccc(O)cc1 (stereo not drawn) [2-Ethylhexyl p-hydroxybenzoate] and CCCCC(CC)COC(=O)C(C#N)=C(c1ccccc1)c1ccccc1 (stereo not drawn) [2-Ethylhexyl-2-cyano-3,3-diphenylacrylate] are within 1.5-fold of each other in IC50: 24.5 µM for the first, 18.4 µM for the second.

Compared with NNc1nc(-c2ccc([N+](=O)[O-])cc2)cs1 [2-Hydrazino-4-(4-nitrophenyl)thiazole], O=[N+]([O-])c1ccc(Nc2ccccc2)cc1 [4-Nitro-N-phenylaniline] is 2.2-fold higher in IC50: 23.6 µM for the first, 51.3 µM for the second. The first is the more potent here.

COc1ccc(C(=O)c2ccccc2)c(O)c1 [2-Hydroxy-4-methoxybenzophenone] and Cc1ccc(O)c(C(=O)c2ccccc2)c1 [2-Hydroxy-5-methylbenzophenone] are within 1.5-fold of each other in IC50: 43.6 µM for the first, 35 µM for the second.

O=[N+]([O-])c1ccccc1Nc1ccccc1 [2-Nitrodiphenylamine] and Cc1cccc(Nc2ccccc2)c1 [3-Methyl-N-phenylaniline] are within 1.5-fold of each other in IC50: 48.7 µM for the first, 52.9 µM for the second.

Cc1cc(C(C)(C)c2ccc(O)c(C)c2)ccc1O [3,3'-Dimethylbisphenol A] and CC(C)CC(C)(c1ccc(O)cc1)c1ccc(O)cc1 [4,4'-(4-Methylpentane-2,2-diyl)diphenol] are within 1.5-fold of each other in IC50: 41.6 µM for the first, 28.6 µM for the second.

Going from O=CC=C(c1ccccc1)c1ccccc1 [3,3-Diphenylacrylaldehyde] to O=C(C=Cc1ccccc1)OCCCc1ccccc1 [3-Phenylpropyl cinnamate], the IC50 falls from 42.4 µM to 19.5 µM (2.2-fold). The second is the more potent here.

Going from CC(C)(C)c1ccc(CCC=O)cc1 [3-(4-tert-Butylphenyl)propanal] to CC(C)(C)CC(C)(C)c1ccc(O)cc1 [4-(1,1,3,3-Tetramethylbutyl)phenol], the IC50 falls from 49 µM to 21.3 µM (2.3-fold).

Going from CC1C2CC(CC2C2CCCC(O)C2)C1(C)C (stereo not drawn) [3-(5,5,6-Trimethylbicyclo[2.2.1]hept-2-yl)cyclohexanol] to C[C@@H]1CC[C@H]2C(C)(C)[C@H]3C[C@@]12CC[C@@]3(C)O [(+)-Cedrol], the IC50 rises from 22.7 µM to 43.6 µM (1.9-fold).

CCCCC(CC)COCCCN (stereo not drawn) [3-((2-Ethylhexyl)oxy)propylamine] and CCCCCCCCOCCCN [3-(Octyloxy)propan-1-amine] are within 1.5-fold of each other in IC50: 35.6 µM for the first, 43.6 µM for the second.

First: CSCCCN=C=S [3-(Methylthio)propyl isothiocyanate]
Second: C/C=C/C=C/CCCCCCCO [8,10-Dodecadien-1-ol]
The IC50 of the first is 1.6-fold higher: 36.7 µM for the first, 22.7 µM for the second. The second is the more potent here.

Going from O=C(CCS)OCC(COC(=O)CCS)(COC(=O)CCS)COC(=O)CCS [3-[(3-Sulfanylpropanoyl)oxy]-2,2-bis{[(3-sulfanylpropanoyl)oxy]methyl}propyl 3-sulfanylpropanoate] to CCCCOC(=O)CC(CC(=O)OCCCC)(OC(C)=O)C(=O)OCCCC [Acetyl tributyl citrate], the IC50 falls from 33.4 µM to 8.99 µM (3.7-fold). The second is the more potent here.

Going from Brc1ccc(Oc2ccc(Br)cc2)cc1 [4,4'-Dibromodiphenyl ether] to Nc1ccc(Oc2ccc(Cl)cc2)cc1 [4-Chloro-4'-aminodiphenyl ether], the IC50 rises from 18.8 µM to 41.1 µM (2.2-fold).

O=S(=O)(c1ccc(Cl)cc1)c1ccc(Cl)cc1 [4,4'-Dichlorodiphenyl sulfone] and O=C(c1ccccc1)c1cc(Cl)ccc1O [(5-Chloro-2-hydroxyphenyl)phenylmethanone] are within 1.5-fold of each other in IC50: 49.7 µM for the first, 46.5 µM for the second.

Going from CCCCCCCCn1sc(Cl)c(Cl)c1=O [4,5-Dichloro-2-octyl-3(2H)-isothiazolone] to CCCCCCCCCc1ccc(O)cc1 [4-Nonylphenol, branched], the IC50 rises from 16.1 µM to 34.3 µM (2.1-fold).

Going from CCC(C)c1cc(C(C)(C)C)c(O)c(C(C)(C)C)c1 (stereo not drawn) [4-(Butan-2-yl)-2,6-di-tert-butylphenol] to CC(Cc1ccc(C(C)(C)C)cc1)CN1C[C@@H](C)O[C@@H](C)C1 (stereo partly drawn) [(2R,6S)-Fenpropimorph], the IC50 rises from 8.54 µM to 15.5 µM (1.8-fold).

First: CC(CC(C#N)(c1ccccc1)c1ccccc1)N(C)C (stereo not drawn) [4-Dimethylamino-2,2-diphenylvaleronitrile]
Second: CCN(CC)CCOC(=O)C(C)(c1ccccc1)c1ccccc1 [Aprofene]
The IC50 of the first is 3.2-fold higher: 29.6 µM for the first, 9.16 µM for the second. The second is the more potent here.

CCCCCCCCCCCCN1CCOCC1 [4-Dodecylmorpholine] and CCCCCCCCCCCCc1ccc(O)cc1 [4-Dodecylphenol] are within 1.5-fold of each other in IC50: 15.5 µM for the first, 19.5 µM for the second.

Compared with N#Cc1ccc(CC(=O)c2cccc(C(F)(F)F)c2)cc1 [4-{2-Oxo-2-[3-(trifluoromethyl)phenyl]ethyl}benzonitrile], NCc1cccc(C2CCN(C(=O)c3ccc(C#Cc4ccccc4F)o3)CC2)c1 [AVE5638] is 3.2-fold lower in IC50: 30.9 µM for the first, 9.77 µM for the second.

O=[N+]([O-])C1(Br)COCOC1 [5-Bromo-5-nitro-1,3-dioxane] and O=C1CCCCCCCCCCOCCCCO1 [12-Oxahexadecanolide] are within 1.5-fold of each other in IC50: 51.9 µM for the first, 49 µM for the second.

First: O=C1CCCC=CCCCCCCCCCC1 [5-Cyclohexadecen-1-one]
Second: CC[C@]12CCCN3CCc4c(n(c5ccccc45)C(=O)C1)[C@@H]32 [(-)-Eburnamonine]
The IC50 of the first is 15-fold higher: 29.2 µM for the first, 1.9 µM for the second. The second is the more potent here.

First: COc1ccc2[nH]cc(CCN(C(C)C)C(C)C)c2c1 [5-Methoxy-N,N-diisopropyltryptamine hydrochloride]
Second: C[C@@H](C1=C(CCN(C)C)Cc2ccccc21)c1ccccn1 [(S)-(+)-Dimethindene maleate]
The IC50 of the first is 1.9-fold higher: 25.2 µM for the first, 13.4 µM for the second. The second is the more potent here.

First: CC(C)CC(C)Nc1ccc(Nc2ccccc2)cc1 (stereo not drawn) [6PPD]
Second: c1ccc(CN(CC2=NCCN2)c2ccccc2)cc1 [Antazoline hydrochloride]
The IC50 of the first is 1.8-fold higher: 29 µM for the first, 15.7 µM for the second.

First: CCn1c2ccccc2c2cc([N+](=O)[O-])ccc21 [9-Ethyl-3-nitro-9H-carbazole]
Second: CC(=O)c1ccc2c(c1)N(CCCN(C)C)c1ccccc1S2 [Acetopromazine maleate]
The IC50 of the first is 1.9-fold higher: 28.6 µM for the first, 15.1 µM for the second. The second is the more potent here.

Going from c1ccc2c(c1)CCc1ccccc1N2 [10,11-Dihydro-5H-dibenz[b,f]azepine] to CCN(CC)CCCN(c1ccccc1)C1Cc2ccccc2C1 [Aprindine hydrochloride], the IC50 falls from 19.7 µM to 2.79 µM (7.1-fold).

CCCCCC(=O)O[C@]1(C(C)=O)CC[C@H]2[C@@H]3CCC4=CC(=O)CC[C@]4(C)[C@H]3CC[C@@]21C [17-((1-Oxohexyl)oxy)pregn-4-ene-3,20-dione] and C[C@H]1C[C@H]2[C@@H]3CCC4=CC(=O)C=C[C@]4(C)[C@@]3(Cl)[C@@H](O)C[C@]2(C)[C@@]1(O)C(=O)CO [Beclomethasone] are within 1.5-fold of each other in IC50: 22.6 µM for the first, 23.9 µM for the second.

Compared with COc1ccc2c(c1OC)C(=O)O[C@H]2[C@@H]1c2cc3c(cc2CCN1C)OCO3 [(1S,9R)-beta-Hydrastine], CN1CCN(Cc2cc(-c3ccc4[nH]c(=O)oc4c3)co2)[C@@H](c2ccc(F)cc2)C1 [AVE8488] is 2-fold higher in IC50: 19 µM for the first, 37.4 µM for the second.

Compared with CC/C=C\CCOC(=O)c1ccccc1O [(3Z)-Hex-3-en-1-yl salicylate], CCN(CC)CCOC(=O)C(c1ccccc1)c1ccccc1 [Adiphenine hydrochloride] is 7.3-fold lower in IC50: 34.7 µM for the first, 4.77 µM for the second.

CC1(C)CCC[C@]2(C)[C@H]3CC(=O)O[C@]3(C)CC[C@@H]12 [(3aR)-(+)-Sclareolide] and CC(=O)C1=C(C)[C@@H]2C[C@@]3(C1)[C@H](C)CC[C@H]3C2(C)C [Acetylcedrene] are within 1.5-fold of each other in IC50: 42 µM for the first, 30.5 µM for the second.

Compared with CC(C)=CCN1CC[C@@]2(C)c3cc(O)ccc3C[C@@H]1[C@@H]2C [(-)-Pentazocine succinate], CC1(C)CCC(C)(C)c2cc(C(=O)Nc3ccc(C(=O)O)cc3)ccc21 [AM580] is 1.9-fold higher in IC50: 22.8 µM for the first, 43.6 µM for the second. The first is the more potent here.

C/C=C\C/C=C/CCCCCCCCOC(C)=O [(E,Z)-Tetradeca-9,12-dienyl acetate] and C=CCCC(=O)/C=C/C1C(C)=CCCC1(C)C (stereo not drawn) [Allyl Ionone] are within 1.5-fold of each other in IC50: 36.7 µM for the first, 30.9 µM for the second.

Compared with CCN(CC)CC1CCCCN1CC(=O)N1c2ccccc2C(=O)Nc2cccnc21 (stereo not drawn) [AF-DX 116], O=C(c1ccc(F)cc1)C1CCN(CCn2c(=S)[nH]c3ccccc3c2=O)CC1 [Altanserin hydrochloride] is 25-fold lower in IC50: 20.5 µM for the first, 0.817 µM for the second. The second is the more potent here.

Going from O=C1NCN(c2ccccc2)C12CCN(CCCOc1ccc(F)cc1)CC2 [AMI-193] to O=C(CCCN1CCN(c2ccccn2)CC1)c1ccc(F)cc1 [Azaperone], the IC50 rises from 0.786 µM to 4.77 µM (6.1-fold). The first is the more potent here.

Compared with CCOC(=O)O[C@H](C)OC(=O)c1ccc2c(c1)cc(C(=O)NC1CCN(C(C)C)CC1)n2Cc1cc(-c2ccc(Cl)s2)on1 [AVE6324], CCCCN1C(=O)[C@@H]([C@H](O)C2CCCCC2)NC(=O)C12CCN(Cc1ccc(Oc3ccc(C(=O)O)cc3)cc1)CC2 [Aplaviroc hydrochloride] is 2.1-fold higher in IC50: 8.14 µM for the first, 17.4 µM for the second. The first is the more potent here.

Compared with CCCOc1sc(C(=O)N2CCC(c3cc(CN)ccc3F)CC2)c(C)c1Br [AVE8923], CCOC(=O)C1(c2ccccc2)CCN(CCc2ccc(N)cc2)CC1 [Anileridine] is 4.1-fold higher in IC50: 4.49 µM for the first, 18.3 µM for the second.

Compared with CC=O [Acetaldehyde], C=CCOc1cc(Cl)ccc1C(=O)NCCN(CC)CC [Alloclamide] is 1.7-fold higher in IC50: 5.33 µM for the first, 8.82 µM for the second.

Compared with ClC1=C(Cl)[C@]2(Cl)[C@H]3[C@H]([C@@H]4C=C[C@H]3C4)[C@@]1(Cl)C2(Cl)Cl [Aldrin], CN1[C@@H]2CC[C@H]1C[C@@H](OC(=O)c1cc(Cl)cc(Cl)c1)C2 [Bemesetron] is 3.9-fold lower in IC50: 23.6 µM for the first, 6.01 µM for the second.

C=CCNc1nc(NCC=C)nc(N2CCN(C(c3ccc(F)cc3)c3ccc(F)cc3)CC2)n1 [Almitrine dimethanesulfonate] and CC1=C(C(=O)OC(C)C)C(c2cccc([N+](=O)[O-])c2)C(C(=O)OC2CN(C(c3ccccc3)c3ccccc3)C2)=C(N)N1 (stereo not drawn) [Azelnidipine] are within 1.5-fold of each other in IC50: 6.01 µM for the first, 8.99 µM for the second.

Going from CCCN(CCC)C(=O)Cc1c(-c2ccc(Cl)cc2)nc2ccc(Cl)cn12 [Alpidem] to CN(C)c1ccc(C(=N)c2ccc(N(C)C)cc2)cc1 [Auramine hydrochloride], the IC50 rises from 20.5 µM to 44.8 µM (2.2-fold).

Compared with CCC(C)(C)c1ccc(CC(C)CN2C[C@@H](C)O[C@@H](C)C2)cc1 (stereo partly drawn) [Amorolfine], CN1CCC(N(Cc2ccccc2)c2ccccc2)CC1 [Bamipine] is 2.3-fold lower in IC50: 9.16 µM for the first, 3.94 µM for the second. The second is the more potent here.
